Where two headings read alike, the source gives them in different places.
How the values were obtained:
[1] = biological target: MDM2-p53 interaction (in vitro translated MDM2) (Homo sapiens (Human), UniProt Q00987); test: MDM2-p53 interaction 96-well plate binding assay (ELISA); details: for MDM2 % inhibition at 0.0010: at 0.0010 μM; for MDM2 % inhibition at 0.10: at 0.10 μM
SJSA-1 = test: Protocol B: CellTiter-Glo cell viability assay; details: read-out: SJSA1 IC50 (μM) (Protocol B)

Chain of MDM2-p53 interaction (in vitro translated MDM2) (Q00987 whole entry): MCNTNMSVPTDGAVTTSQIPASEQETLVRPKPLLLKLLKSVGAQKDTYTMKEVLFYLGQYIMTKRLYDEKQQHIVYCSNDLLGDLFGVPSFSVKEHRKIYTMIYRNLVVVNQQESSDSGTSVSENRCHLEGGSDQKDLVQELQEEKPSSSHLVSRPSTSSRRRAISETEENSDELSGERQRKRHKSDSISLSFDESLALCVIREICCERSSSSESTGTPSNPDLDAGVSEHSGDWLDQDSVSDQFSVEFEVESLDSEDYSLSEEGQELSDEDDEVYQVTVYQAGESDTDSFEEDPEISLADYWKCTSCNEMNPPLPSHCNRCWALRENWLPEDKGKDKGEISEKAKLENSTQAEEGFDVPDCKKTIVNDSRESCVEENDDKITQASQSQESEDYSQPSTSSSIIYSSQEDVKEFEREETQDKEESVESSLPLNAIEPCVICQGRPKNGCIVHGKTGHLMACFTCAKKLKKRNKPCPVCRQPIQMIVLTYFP

MDM2 % inhibition at 0.0010 [1] [%@0.0010]	IC50 (SJSA-1; Protocol B) [µM]	Compound	also measured
94	–	1-({[(1R)-1-(4-chlorophenyl)-2-[(5-chloropyrimidin-2-yl)methyl]-7-fluoro-5-[1-(4-fluoropiperidin-4-yl)-1-hydroxypropyl]-3-oxo-2,3-dihydro-1H-isoindol-1-yl]oxy}methyl)cyclopropane-1-carbonitrile [Example 545]	–
–	0.22	1-({[(1R)-1-(4-chlorophenyl)-2-[(5-chloropyrimidin-2-yl)methyl]-7-fluoro-5-[1-hydroxy-1-(1-methyl-1H-pyrazol-4-yl)ethyl]-3-oxo-2,3-dihydro-1H-isoindol-1-yl]oxy}methyl)cyclopropane-1-carboxamide [Example 214]	–
64	–	1-({[(1R)-1-(4-chlorophenyl)-2-[(5-chloropyrimidin-2-yl)methyl]-7-fluoro-5-[2-hydroxy-1-(piperazin-1-yl)butan-2-yl]-3-oxo-2,3-dihydro-1H-isoindol-1-yl]oxy}methyl)cyclopropane-1-carbonitrile [Example 536]	–
–	0.76	1-({[(1R)-1-(4-chlorophenyl)-2-[(5-chloropyrimidin-2-yl)methyl]-7-fluoro-5-[2-hydroxy-1-(piperazin-1-yl)butan-2-yl]-3-oxo-2,3-dihydro-1H-isoindol-1-yl]oxy}methyl)cyclopropane-1-carbonitrile [Example 537]	–
–	0.45	1-({[(1R)-1-(4-chlorophenyl)-7-fluoro-2-[(5-fluoropyridin-2-yl)methyl]-5-[1-hydroxy-1-(1-methyl-1H-pyrazol-4-yl)ethyl]-3-oxo-2,3-dihydro-1H-isoindol-1-yl]oxy}methyl)cyclopropane-1-carboxamide [Example 209]	–
–	–	1-({[(1R)-2-[(4-chloro-2-methanesulfonylphenyl)methyl]-1-(4-chlorophenyl)-7-fluoro-5-[1-hydroxy-1-(1-methyl-1H-pyrazol-4-yl)ethyl]-3-oxo-2,3-dihydro-1H-isoindol-1-yl]oxy}methyl)cyclopropane-1-carboxamide [Example 74]	IC50 (SJSA-1; SJSA-1, CellTiter-Glo, 72 hrs): 1 µM
76	–	2-[(5-chloro-3-hydroxypyridin-2-yl)methyl]-3-(4-chlorophenyl)-4-fluoro-6-[(1S)-1-hydroxy-1-(1-methylpiperidin-4-yl)propyl]-3-[(3S)-oxolan-3-yloxy]-2,3-dihydro-1H-isoindol-1-one [Example 568]	–
–	–	2-{[(1R)-1-(4-chlorophenyl)-1-[(1-cyanocyclopropyl)methoxy]-7-fluoro-5-[1-hydroxy-1-(1-methyl-1H-imidazol-4-yl)propyl]-3-oxo-2,3-dihydro-1H-isoindol-2-yl]methyl}pyrimidine-5-carbonitrile [Example 463]	MDM2 % inhibition at 0.10 [1]: 73%@0.10
–	4.9	2-{[(1R)-1-(4-chlorophenyl)-7-fluoro-5-[1-hydroxy-1-(1-methyl-1H-imidazol-4-yl)propyl]-3-oxo-1-{[trans-3-hydroxycyclobutyl]methoxy}-2,3-dihydro-1H-isoindol-2-yl]methyl}pyrimidine-5-carbonitrile [Example 484]	–
87	–	2-{[(1R)-1-(4-chlorophenyl)-7-fluoro-5-{1-hydroxy-1-[trans-4-hydroxycyclohexyl]propyl}-3-oxo-1-[(3S)-oxolan-3-yloxy]-2,3-dihydro-1H-isoindol-2-yl]methyl}pyrimidine-5-carbonitrile [Example 503]	–
–	–	4-{[(1R)-1-(4-chlorophenyl)-7-fluoro-5-[1-hydroxy-1-(1-methyl-1H-imidazol-4-yl)propyl]-3-oxo-1-[(3S)-oxolan-3-yloxy]-2,3-dihydro-1H-isoindol-2-yl]methyl}-3-(hydroxymethyl)benzonitrile [Example 92]	IC50 (SJSA-1; SJSA-1, CellTiter-Glo, 72 hrs): 0.084 µM
–	0.64	5-chloro-2-{[(1R)-1-(4-chlorophenyl)-7-fluoro-5-[(1R)-1-(4-fluorooxan-4-yl)-1-hydroxypropyl]-1-methoxy-3-oxo-2,3-dihydro-1H-isoindol-2-yl]methyl}pyridine-3-carboxylic acid (tris(hydroxymethyl)aminomethane salt) [Example 514]	–
–	0.36	6-{[(1R)-1-(4-chlorophenyl)-1-[(1-cyanocyclopropyl)methoxy]-7-fluoro-5-[1-hydroxy-1-(1-methyl-1H-pyrazol-4-yl)ethyl]-3-oxo-2,3-dihydro-1H-isoindol-2-yl]methyl}pyridine-3-carbonitrile [Example 211]	–
86	–	6-{[(1R)-1-(4-chlorophenyl)-7-fluoro-5-[1-(4-fluoropiperidin-4-yl)-1-hydroxypropyl]-3-oxo-1-[(3S)-oxolan-3-yloxy]-2,3-dihydro-1H-isoindol-2-yl]methyl}pyridine-3-carbonitrile [Example 546]	–
–	–	6-{[(1R)-1-(4-chlorophenyl)-7-fluoro-5-[1-hydroxy-1-(1-methyl-1H-imidazol-4-yl)butyl]-3-oxo-1-[(3S)-oxolan-3-yloxy]-2,3-dihydro-1H-isoindol-2-yl]methyl}pyridine-3-carbonitrile [Example 473]	MDM2 % inhibition at 0.10 [1]: 44%@0.10
–	–	6-{[(1R)-1-(4-chlorophenyl)-7-fluoro-5-[1-hydroxy-1-(1-methyl-1H-pyrazol-4-yl)propyl]-3-oxo-1-[(3S)-oxolan-3-yloxy]-2,3-dihydro-1H-isoindol-2-yl]methyl}pyridine-3-carbonitrile [Example 358]	MDM2 % at concentration [1]: 74%@0.0010
–	0.41	(3R)-2-[(5-chloro-1-oxo-1λ^5-pyridin-2-yl)methyl]-3-(4-chlorophenyl)-4-fluoro-6-[1-hydroxy-1-(1-methyl-1H-pyrazol-4-yl)ethyl]-3-[(1-hydroxycyclopropyl)methoxy]-2,3-dihydro-1H-isoindol-1-one [Example 409]	–
–	–	(3R)-2-[(5-chloro-3-hydroxypyridin-2-yl)methyl]-3-(4-chlorophenyl)-4-fluoro-6-[1-hydroxy-1-(1-methyl-1H-imidazol-4-yl)propyl]-3-[cis-3-hydroxycyclobutoxy]-2,3-dihydro-1H-isoindol-1-one [Example 488]	MDM2 % inhibition at 0.10 [1]: 56%@0.10
–	–	(3R)-3-(4-Chlorophenyl)-2-[(1R)-1-(5-chloropyridin-2-yl)-2,3-dihydroxypropyl]-4-fluoro-3-[(1-hydroxycyclopropyl)methoxy]-6-(2-hydroxypropan-2-yl)-2,3-dihydro-1H-isoindol-1-one [Example 331]	MDM2 % at concentration ([1]; at 0.030 μM): 49%@0.030
85	–	(3R)-3-(4-chlorophenyl)-2-[(5-chloropyridin-2-yl)methyl]-4-fluoro-6-[1-(4-fluoropiperidin-4-yl)-1-hydroxypropyl]-3-[(2R)-2-hydroxypropoxy]-2,3-dihydro-1H-isoindol-1-one [Example 549]	–
–	–	(3R)-3-(4-chlorophenyl)-2-[(5-chloropyrimidin-2-yl)methyl]-4-fluoro-6-[(1R)-1-hydroxy-1-(1-methylpiperidin-4-yl)propyl]-3-[(3S)-oxolan-3-yloxy]-2,3-dihydro-1H-isoindol-1-one [Example 567]	MDM2 % inhibition at 0.10 [1]: 57%@0.10
72	–	(3R)-3-(4-chlorophenyl)-2-[(5-chloropyrimidin-2-yl)methyl]-4-fluoro-6-{1-hydroxy-1-[trans-4-hydroxycyclohexyl]propyl}-3-methoxy-2,3-dihydro-1H-isoindol-1-one [Example 511]	–
–	–	(3R)-3-(4-chlorophenyl)-4-fluoro-6-[1-hydroxy-1-(1-methyl-1H-pyrazol-4-yl)ethyl]-3-[(1-hydroxycyclopropyl)methoxy]-2-[(5-methoxypyridin-2-yl)methyl]-2,3-dihydro-1H-isoindol-1-one [Example 228]	MDM2 % at concentration ([1]; at 0.010 μM): 61%@0.010

Compound	MDM2 % inhibition at 0.0010 [1] [%@0.0010]	IC50 (SJSA-1; Protocol B) [µM]	also measured
2-{[(1R)-1-(4-chlorophenyl)-7-fluoro-5-[(1R)-1-(4-fluorooxan-4-yl)-1-hydroxypropyl]-3-oxo-1-[cis-3-hydroxycyclobutoxy]-2,3-dihydro-1H-isoindol-2-yl]methyl}pyrimidine-5-carbonitrile [Example 505]	60	–	–
6-{[1-(4-chlorophenyl)-7-fluoro-5-[1-hydroxy-1-(1-methyl-1H-pyrazol-4-yl)ethyl]-3-oxo-1-[cis-3-hydroxycyclobutoxy]-2,3-dihydro-1H-isoindol-2-yl]methyl}pyridine-3-carbonitrile [Example 355]	–	4.7	–
6-{[1-(4-chlorophenyl)-7-fluoro-5-[1-hydroxy-1-(1-methyl-1H-pyrazol-4-yl)ethyl]-3-oxo-1-[cis-3-hydroxycyclobutoxy]-2,3-dihydro-1H-isoindol-2-yl]methyl}pyridine-3-carbonitrile [Example 356]	–	0.96	–
CCC(O)(c1cc(F)c2c(c1)C(=O)N(Cc1ncc(C#N)cn1)[C@@]2(O[C@H]1CCOC1)c1ccc(Cl)cc1)c1cn(C)cn1 (stereo partly drawn) [Example 369, 2-{[(1R)-1-(4-chlorophenyl)-7-fluoro-5-[1-hydroxy-1-(1-methyl-1H-imidazol-4-yl)propyl]-3-oxo-1-[(3S)-oxolan-3-yloxy]-2,3-dihydro-1H-isoindol-2-yl]methyl}pyrimidine-5-carbonitrile]	–	0.062	–
[2H]C([2H])([2H])C1(C([2H])([2H])O[C@]2(c3ccc(Cl)cc3)c3c(F)cc(C(O)(CC)c4cn(C)cn4)cc3C(=O)N2Cc2ccc(C#N)cn2)CC1 (stereo partly drawn) [Example 439, 6-{[(1R)-1-(4-chlorophenyl)-7-fluoro-1-({1-[hydroxy(^2H2)methyl]cyclopropyl}(^2H2)methoxy)-5-[1-hydroxy-1-(1-methyl-1H-imidazol-4-yl)propyl]-3-oxo-2,3-dihydro-1H-isoindol-2-yl]methyl}pyridine-3-carbonitrile]	–	0.03	–
(3R)-3-(4-chlorophenyl)-2-[(5-chloropyrimidin-2-yl)methyl]-4-fluoro-6-[(1S)-1-hydroxy-1-(1-methylpiperidin-4-yl)propyl]-3-[cis-3-hydroxycyclobutoxy]-2,3-dihydro-1H-isoindol-1-one [Example 560]	30	–	–

From patent US20230338337A1, “BIOMARKERS FOR CANCER THERAPY USING MDM2 ANTAGONISTS” (OTSUKA PHARMACEUTICAL CO., LTD., priority 2019, published 2023)
